In the assay the target is GCase enzyme (Cerezyme®, recombinant human GCase) (Homo sapiens, UniProt P04062, R534H). The conditions noted are these: read-out: GCase Ki; from IC50 by Cheng-Prusoff equation, GCase Km 7.9 mM, pH 7.0.

The source of these data is patent publication US10081601B2, “Glucocerebrosidase modulators and uses thereof” (Alectos Therapeutics Inc., priority 2013, dated 2018).

For orientation: Ki means the equilibrium dissociation constant of an inhibitor or competing ligand from its target.

Sequence of GCase enzyme (Cerezyme®, recombinant human GCase) (P04062 40-536 R534H limits assumed): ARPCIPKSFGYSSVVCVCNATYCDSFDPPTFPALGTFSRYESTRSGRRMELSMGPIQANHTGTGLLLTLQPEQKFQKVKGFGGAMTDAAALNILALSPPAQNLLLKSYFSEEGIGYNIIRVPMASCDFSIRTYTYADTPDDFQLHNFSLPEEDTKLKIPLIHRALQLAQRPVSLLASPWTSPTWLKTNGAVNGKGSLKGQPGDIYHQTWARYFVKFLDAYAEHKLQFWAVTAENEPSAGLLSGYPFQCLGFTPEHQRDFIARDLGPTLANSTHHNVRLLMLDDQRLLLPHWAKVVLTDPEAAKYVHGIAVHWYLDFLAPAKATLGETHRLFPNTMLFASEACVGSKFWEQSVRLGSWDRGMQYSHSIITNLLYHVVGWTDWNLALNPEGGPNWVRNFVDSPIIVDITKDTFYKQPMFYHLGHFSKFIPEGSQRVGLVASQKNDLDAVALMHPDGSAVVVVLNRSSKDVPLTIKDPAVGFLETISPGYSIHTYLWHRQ
Protocol: Various concentrations of test compounds were prepared in DMSO and then diluted into buffer consisting of 50 mM sodium phosphate 0.25% w/v sodium taurodexoycholate, pH 7.0. […] The reaction solution consisted of 25 μL of 6 mM 4-methylumbelliferone-β-D glucopyranoside in 10% DMSO in the same buffer, 12.5 μL of enzyme and 12.5 μL of various concentrations of test compound diluted in buffer. […] The reaction was initiated by addition of enzyme and allowed to proceed for 20 min at 37° C. to assess GCase activity. […] IC50 values were determined by fitting the data to a log[inhibitor concentration] versus response curve using GraphPad Prism.

For `C[C@@H]1[C@@H](O)[C@H](O)CNC12CC2` [Example 1, (6R,7R,8S)-8-methyl-4-azaspiro[2.5]octane-6,7-diol], the inhibition constant Ki was found to be 2.6 nM.

As for `O[C@H]1[C@H](O)CNC2(CC2)[C@@H]1C(F)F` [Example 4, (6R,7R,8S)-8-(difluoromethyl)-4-azaspiro[2.5]octane-6,7-diol], the inhibition constant Ki was determined as 8 nM.
